Measured values as given in patent publication US10709907B2, “Taurine and aloe synergistic anti-irritant compositions and methods” (Colgate-Palmolive Company, priority 2016, dated 2020).

What was measured:
[1] = system: In vitro skin samples (MatTek EpiDerm); assay: Cytotoxicity Assay (MTT), cell viability of reconstructed human epidermis; assay type: cell-based; settings: for MTT (% cell viability): untreated Control = 100
Method: (§1) Two in vitro reconstructed human epidermis models were employed to assess the relative irritation potential of selected test samples, the Cytotoxicity Assay (MTT) and the Irritation Assay (IL-1α Release Assay), described below.
Cytotoxicity Assay (MTT):
Cell damage was evaluated by assessing mitochondrial metabolic activity using 3-[4,5-dimethylthiazol-2-yl]-2,5-diphenyltetrazolium bromide (MTT-reduction assay) upon exposure to the test sample. MTT solution was prepared as 1.0 mg/ml in Phosphate Buffered Saline (PBS) just before usage. In vitro skin samples (MatTek EpiDerm) were treated topically with the test sample for 1 hour in a tissue culture incubator. Following the incubation, skin samples were washed with PBS and placed in 24 well tissue culture plates, and 500 μl of the MTT solutions were added to each well and incubated at 37° C. for 2 hours. The cell survivability was analyzed by measuring the ability of the cell's mitochondria to reduce the colorless MTT to a colored formazan crystalline end product. The reaction was terminated by the removal of the MTT solution from the wells. Addition of 1.0 mL of 0.04M HCl in isopropanol to each well was used to dissolve the intracellular MTT formazan crystals. The contents of each well were mixed gently in an orbital shaker at room temperature for 1 hour and the absorbency at 570 nm was measured by an ELISA plate reader (SpectraMax M5 Multi-Mode Microplate Readers, Molecular Devices, California).

[2] = system: IL-1α release, 3D EpiDerm skin models (SIT-200 skin irritation model); assay: Irritation Assay (IL-1α Release Assay) by ELISA; assay type: cell-based, human; settings: untreated Control = 100
Description: as §1
Irritation Assay (IL-1α Release Assay):
To document the skin irritation of Antiperspirant Active Ingredients, we have conducted in vitro experiments using 3D EpiDerm skin models (SIT-200 skin irritation model, MatTek Corporation, Ashland, Mass. 01721). In vitro skin samples were treated topically with the test compound for 1 hour in tissue culture incubator. Following the incubation, skin samples were washed with PBS and placed in a culture medium and continue to incubate for 24 hours. Cell culture media was collected for IL-1α release assay. Higher the IL-1a release means higher the irritation potential. IL-1α release was analyzed by ELISA assay kit (Invitrogen, Grand Island, N.Y. 14072) and (R&D Systems, Minneapolis, Minn. 55413).

Row | Structure (SMILES) | MTT (% cell viability) ([1]; Example 3, formulated samples) | IL-1α (percentage compared to untreated tissue) ([2]; Example 3, formulated samples) | MTT (% cell viability) ([1]; Example 1, topical treatment 1 hour) | reduction of cell viability compared to untreated tissue (MTT) ([1]; Example 2) | MTT (% cell viability) ([1]; Example 2, topical treatment 1 hour) | IL-1α (percentage of the test value for the Control) ([2]; Example 1, topical treatment 1 hour, then 24 hours in culture medium) | IL-1α (percentage compared to untreated tissue) ([2]; Example 2, topical treatment 1 hour, then 24 hours in culture medium)
1 | O.O.O.O.O.O.[Al+3].[Cl-].[Cl-].[Cl-] [12% AlCl3, Aluminum Chloride Hexaaqua] | 99% | 234% |  |  |  |  | 
2 | O.O.O.O.O.O.[Al+3].[Cl-].[Cl-].[Cl-] [14% AlCl3, Aluminum Chloride Hexaaqua] |  |  | 78% | 15-20% | 84% | 345% | 594%
